Measurements: publication PMC10396955, “2-Oxabicyclo[2.1.1]hexanes as saturated bioisosteres of the ortho-substituted phenyl ring” (Nature Chemistry, 2023)

test system: human liver microsomes; test: Metabolic stability in human liver microsomes; format: in vitro ADME; conditions: both, human, 2 µM, pH 7.4
Method: The data acquisition and system control was performed using Analyst 1.6.3 software from AB Sciex. Methods Microsomal incubations were carried out in 96-well plates in 5 aliquots of 30 μL each (one for each time point). […] In the control reactions the NADPH-cofactor system was substituted with phosphate buffer. […] Each reaction was performed in duplicates. Five time points over 40 minutes were analyzed. The reactions were stopped by adding 4 volumes of methanol containing internal standard to incubation aliquots, followed by protein sedimentation by centrifuging at 5500 rpm for 4 minutes. […]. Supernatants were analyzed using the HPLC system coupled with tandem mass spectrometer. […] In some cases, the last time point is excluded from the calculations to ensure acceptable logarithmic linearity of decay.

SMILES | kel [min⁻¹]
O=C(O)Cc1ccccc1Nc1c(Cl)cccc1Cl [Diclofenac, reference compound] | 0.115

same assay, conditions: both, human, microsomes, 2 µM, pH 7.4

SMILES | Clint [µL/min/mg]
O=C(O)Cc1ccccc1Nc1c(Cl)cccc1Cl [Diclofenac, reference compound] | 276

same assay, conditions: both, human, microsomes, 25 min, 2 µM, pH 7.4

SMILES | % Remaining, Mean of 2 [%]
O=C(O)Cc1ccccc1Nc1c(Cl)cccc1Cl [Diclofenac, reference compound] | 8

test system: not listed separately; test: physchem; format: physicochemical; conditions: Table S2; n-octanol/PBS pH 7.4; incubation 1
Method: Determination of Distribution Coefficient (LogD, pH 7.4) […]
n-octanol – phosphate buffered saline (PBS), pH 7.4. Distribution coefficient (or LogD) is a […]
Phosphate buffered saline, tablet (Sigma-Aldrich, USA; Cat # P4417)
Acetic acid (Enamine, Ukraine.)
DMSO stock solutions of the test compounds 10mM
Gradient HPLC system (Shimadzu, Japan)
MTR22 Multi Mix Rotator (UNICO, USA)
Laboratory Centrifuge, Sigma 4-15C, Qiagen (SIGMA GmbH, Germany) […]
allowed to mix in a rotator for 1 h at 30 rpm. Phase separation was assured by centrifugation for […]
dilution. The samples (both phases) were analyzed using a HPLC system coupled with a tandem mass spectrometer. Mebendazole was used as a reference compound. […]
where: SO – peak area of the analyte in octanol phase
S P – peak area of the analyte in PBS buffer do – dilution coefficient for octanol phase dp – dilution coefficient for aqueous phase

SMILES | D (partition ratio), incubation 1
COC(=O)Nc1nc2ccc(C(=O)c3ccccc3)cc2[nH]1 [Mebendazole, reference compound] | 1.27E+03

same assay, conditions: Table S2; n-octanol/PBS pH 7.4; incubation 2

SMILES | D (partition ratio), incubation 2
COC(=O)Nc1nc2ccc(C(=O)c3ccccc3)cc2[nH]1 [Mebendazole, reference compound] | 1.32E+03

same assay, conditions: Table S2; n-octanol/PBS pH 7.4; incubation 3

SMILES | D (partition ratio), incubation 3
COC(=O)Nc1nc2ccc(C(=O)c3ccccc3)cc2[nH]1 [Mebendazole, reference compound] | 1.33E+03

same assay, conditions: pH 7.4, LogD, pH 7.4 (mean)

SMILES | logD at 1 h
COC(=O)Nc1nc2ccc(C(=O)c3ccccc3)cc2[nH]1 [Mebendazole, reference compound] | 3.12

same assay, conditions: pH 7.4, LogD, pH 7.4, incubation 1

SMILES | logD at 1 h
COC(=O)Nc1nc2ccc(C(=O)c3ccccc3)cc2[nH]1 [Mebendazole, reference compound] | 3.1

same assay, conditions: pH 7.4, LogD, pH 7.4, incubation 2

SMILES | logD at 1 h
COC(=O)Nc1nc2ccc(C(=O)c3ccccc3)cc2[nH]1 [Mebendazole, reference compound] | 3.12

same assay, conditions: pH 7.4, LogD, pH 7.4, incubation 3

SMILES | logD at 1 h
COC(=O)Nc1nc2ccc(C(=O)c3ccccc3)cc2[nH]1 [Mebendazole, reference compound] | 3.12

test system: not listed separately; test: Chemical stability of carboxylic acids (acid, base, storage); format: physicochemical; conditions: aqueous 1 M hydrochloric acid, room temperature, one day
Source text: We also checked the chemical stability of three representative carboxylic acids, 1b, 19b and 22b (Table 2), because we suspected that some of them could decompose via a retro-Michael-type reaction. […] All products were crystalline solids, and we stored all of them in closed vials at room temperature on the shelf.

SMILES | chemical stability
O=C(O)C1C2CC1(c1ccccc1)CO2 (stereo not drawn) [Compound 1b] | did not lead to any decomposition

same assay, conditions: aqueous 1 M sodium hydroxide, room temperature, one day

SMILES | chemical stability
O=C(O)C1C2CC1(c1ccccc1)CO2 (stereo not drawn) [Compound 1b] | did not lead to any decomposition
